From paper PMC10287566, “Signaling-specific inhibition of the CB1 receptor for cannabis use disorder: phase 1 and phase 2a randomized trials” (Nature Medicine, 2023)

Experiments:
rats = assay: Irwin test and body temperature (GLP); assay type: in vivo; conditions: rats, 2, 9 and 36 mg kg^−1 oral
Protocol: The study involved four groups of six male Wistar rats weighing between 154.0 g and 185.9 g. […] On study day, animals were first scored by the Irwin standardized observation battery, and body temperature was measured. […] Irwin scores and measurement of body temperature were done again at 1, 3, 6, 8 and 24 h after dose.

DIO mice = assay: Food intake and body weight in diet-induced obese mice, repeated treatment; assay type: in vivo; conditions: mice, acute and repeated 28 d, highest dose tested 15 mg/kg
Protocol: Body weight and food intake were studied because they are reduced by repeated treatment with rimonabant both in mice[31] and in humans. DIO mice were used because the effects of CB1 antagonists are of greater amplitude in obese mice than in lean mice. Male C57BL/6J mice (8 weeks old) were fed ad libitum with a high-fat diet (HFD) for 8 weeks before the start of the pharmacological treatments. During pharmacological treatments, the HFD was maintained, and food intake and body weight were measured daily. The food consumed was calculated by subtracting the food left in the hoppers from the initial pre-weighed amount.

COc1ccc(CO[C@H]2CC[C@@]3(C)C(=CC[C@H]4[C@@H]5CC[C@H](C(C)=O)[C@@]5(C)CC[C@@H]43)C2)cc1 [AEF0117, 3β-(4-methoxybenzyloxy)pregn-5-en-20-one]
effect on spontaneous behavior in the home cage (Irwin test) (rats): had no effect
Overall effect: inhibition of spontaneous food-intake (DIO mice): No
